# According to patent publication US20050004029A1, “Methods and compositions for treating vascular leak using hepatocyte growth factor” (priority 2001, published 2005):
# “Also recorded” adds a separate entry of the source.
# Assays:
# PI-3′ kinase = test: Akt phosphorylation by western immunoblotting (PI-3′ kinase activity); format: cell-based
# Procedure: Endothelial cell monolayers grown to confluence in 12-well plates and challenged with HGF were lysed with 100 μl of 2×SDS sample buffer, and cell lysates were transferred into microcentrifuge tubes and boiled for 5 min. After a brief spin, proteins from 10 μl cell lysates were separated on 12% SDS-PAGE and transferred to nitrocellulose (Schleicher & Schuell, Keene, N.H.) (30V, 18 h). After blocking with PBST (PBS with 0.1% Tween 20) containing 5% non-fat milk for 1 hr, nitrocellulose blots were reacted with primary antibodies diluted in PBST containing 5% BSA for 1 hr, washed with PBST (3×10 min), incubated with peroxidase-conjugated secondary antibodies (goat anti-rabbit IgG, 1:10,000 dilution, Sigma; or goat anti-mouse IgG, 1:10,000 dilution, Bio-Rad Labs, Richmond, Calif.) diluted in PBST with 5% non-fat milk for 1 hr and again washed with PBST (3×10 min). Finally, immunoreactive proteins were detected using ECL. The relative intensities of the protein bands were quantified by scanning densitometry.
# To identify key signaling mediators involved in HGF-induced barrier protection, the role of PI-3′-kinase in HGF-stimulated barrier improvement was examined by measuring HGF-dependent phosphorylation of the serine/threonine kinase, Akt, a well-accepted method of defining PI-3′ kinase activity. Cell homogenates were analyzed by western immunoblotting with anti-phospho-Akt[…] antibody. When endothelial monolayers were incubated with HGF (20 ng/ml) for increasing amounts of time (1, 2, 5, 10, 15, 20, 30, 60, or 120 minutes), AKT is rapidly phosphorylated beginning at 2 min with maximal effect plateauing by 5-30 min. When the cells are incubated for 15 minutes with increasing concentrations of HGF (0.5, 1, 2, 5, 10, 20, 50 or 100 ng/ml), activation was […] in response to concentrations as low as 5 ng/ml. […]
# [1] = tested on: human alveolar epithelial cells (A549); test: Electrical resistance of A549 alveolar epithelial cells on gold microelectrodes; format: cell-based; details: HGF 100 ng/mL; sphingosine 1-phosphate 1 μM
# Procedure: FIGS. 1A-1D depict HGF-mediated increases in human transendothelial electrical resistance (TER). FIG. 1A: Human pulmonary artery endothelial cells were grown to confluence on gelatinized gold microelectrodes. Two hours prior to TER measurement, growth medium was replaced with serum-free M199. Serial-diluted HGF was added to cells at indicated concentrations and TER monitored for 2.5 hr. […] The result shown is a representative TER tracing of three independent experiments. FIG. 1B: Similar to FIG. 1A, human alveolar epithelial cells (A549) were grown on gold microelectrodes and challenged with vehicle, HGF, (100 ng/mL) or sphingosine 1-phosphate (1 μM). […]
# Electrical resistance of EC monolayers was measured using electrical cell impedance sensor system (Applied Biophysics Inc., Troy, N.Y.) as described in Garcia, J. G. N. et al. (2000) J. Appl. […] Cells grown on gold microelectrodes (10^−3 cm^2) in polycarbonate wells act as insulating particles, and the resistance across the monolayers (transendothelial electrical resistance, or TER) is measured in real time. […] The in-phase and out-of-phase voltages between the electrodes were monitored in real time with the lock-in amplifier and converted to scalar measurements of transendothelial impedance, of which resistance was the primary focus. […]
substance,measurement,setting,value
"HGF: heparin-binding glycoprotein, multifunctional cytokine, ligand of c-Met; purchased from R&D Systems",onset of Akt phosphorylation,PI-3′ kinase; HGF 20 ng/ml,2 min
same,time of maximal Akt phosphorylation (plateau),PI-3′ kinase; HGF 20 ng/ml,5 to 30 min
same,lowest concentration giving Akt activation,"PI-3′ kinase; HGF 0.5-100 ng/ml, 15 minutes",5 ng/mL
same,effect on electrical resistance of epithelial cells,[1],did not alter TER values; also recorded: completely without effect
